Reference: patent US20210207081A1, “MATURE AIRWAY ORGANOIDS, METHODS OF MAKING AND USES THEREOF” (priority 2018, published 2021)

System: H7N9/Ah virus
Format: cell-based, Influenza A virus A/Anhui/1/2013(H7N9)

NCCc1ccc(S(=O)(=O)F)cc1 [AEBSF]
replication of H7N9/Ah virus: significantly restricted the active replication of H7N9/Ah virus
